Experimental data reported in US10259810B2, “N-sulfonylated pyrazolo[3,4-b]pyridin-6-carboxamides and method of use” (AbbVie S.à.r.l., priority 2015, dated 2019).

What was measured:
Assay type in all cases: cell-based
CFTR ΔF508 = biological target: T1, CFTR ΔF508 (Homo sapiens, UniProt P13569, DEL508-508); assay: Chronic TECC assay, primary bronchial epithelial cells of CF patients homozygous for CFTR ΔF508 (corrector, co-corrector and potentiator); conditions: chronic TECC, AUC = full area under the curve upon forskolin stimulation; for % Activity at 1 μM (AUC**): test compound at 1 μM; for EC50: read-out: EC50 (nM) (AUC**)
T1 construct: bronchial epithelial cells isolated from CF patients homozygous for the CFTR ΔF508 mutation; McGill University; Asterand; University of North Carolina hAEC-CF; host or cells: primary human bronchial epithelial cells from CF patients homozygous for ΔF508, differentiated at air-liquid interface
How it was run: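 Primary bronchial epithelial cells from ΔF508-homozygous CF patients on collagen IV-coated Transwells were chronically treated with test compound plus corrector and potentiator, which were re-added before recording. Ieq was derived from PD and Rt in NaCl-Ringer, pH 7.4, at 37° C, with apical amiloride and bilateral forskolin, recorded every 2 min over 20 min. Ieq increase was normalized to controls, and EC50 was taken from per-well concentrations.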

ΔF508-CFTR [1] = biological target: T2, ΔF508-CFTR (Homo sapiens, UniProt P13569, DEL508-508); assay: CFTR cell surface levels using HRP-tagged ΔF508-CFTR expressing CFBE cells, in the presence of a co-corrector; conditions: HRP-tagged ΔF508-CFTR CFBE cells, in the presence of 3 μM co-corrector; for EC50: read-out: EC50
T2 construct: host or cells: CFBE41o-, doxycycline-inducible
How it was run: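 Chemiluminescent read-out of surface HRP (15 min, dark) after PBS washes. Activity is normalized as 100×(sample−DMSO)/(3 μM co-corrector alone−DMSO).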

ΔF508-CFTR [2] = biological target: T2, ΔF508-CFTR; assay: CFTR cell surface levels using HRP-tagged ΔF508-CFTR expressing CFBE cells, intrinsic corrector capacity; set-up: % Activation: concentration or dose not given beside the values; conditions: HRP-tagged ΔF508-CFTR expressing CFBE41o- cells, compound alone (intrinsic corrector capacity), 20 hours at 33° C.; for EC50: read-out: EC50
How it was run: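 Surface ΔF508-CFTR was measured as HRP chemiluminescence from an extracellular-loop-4 tag, expressed as percent activity between DMSO and a […] corrector control.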

T2 sequence (P13569 with tags, fused parts or gaps DEL508-508): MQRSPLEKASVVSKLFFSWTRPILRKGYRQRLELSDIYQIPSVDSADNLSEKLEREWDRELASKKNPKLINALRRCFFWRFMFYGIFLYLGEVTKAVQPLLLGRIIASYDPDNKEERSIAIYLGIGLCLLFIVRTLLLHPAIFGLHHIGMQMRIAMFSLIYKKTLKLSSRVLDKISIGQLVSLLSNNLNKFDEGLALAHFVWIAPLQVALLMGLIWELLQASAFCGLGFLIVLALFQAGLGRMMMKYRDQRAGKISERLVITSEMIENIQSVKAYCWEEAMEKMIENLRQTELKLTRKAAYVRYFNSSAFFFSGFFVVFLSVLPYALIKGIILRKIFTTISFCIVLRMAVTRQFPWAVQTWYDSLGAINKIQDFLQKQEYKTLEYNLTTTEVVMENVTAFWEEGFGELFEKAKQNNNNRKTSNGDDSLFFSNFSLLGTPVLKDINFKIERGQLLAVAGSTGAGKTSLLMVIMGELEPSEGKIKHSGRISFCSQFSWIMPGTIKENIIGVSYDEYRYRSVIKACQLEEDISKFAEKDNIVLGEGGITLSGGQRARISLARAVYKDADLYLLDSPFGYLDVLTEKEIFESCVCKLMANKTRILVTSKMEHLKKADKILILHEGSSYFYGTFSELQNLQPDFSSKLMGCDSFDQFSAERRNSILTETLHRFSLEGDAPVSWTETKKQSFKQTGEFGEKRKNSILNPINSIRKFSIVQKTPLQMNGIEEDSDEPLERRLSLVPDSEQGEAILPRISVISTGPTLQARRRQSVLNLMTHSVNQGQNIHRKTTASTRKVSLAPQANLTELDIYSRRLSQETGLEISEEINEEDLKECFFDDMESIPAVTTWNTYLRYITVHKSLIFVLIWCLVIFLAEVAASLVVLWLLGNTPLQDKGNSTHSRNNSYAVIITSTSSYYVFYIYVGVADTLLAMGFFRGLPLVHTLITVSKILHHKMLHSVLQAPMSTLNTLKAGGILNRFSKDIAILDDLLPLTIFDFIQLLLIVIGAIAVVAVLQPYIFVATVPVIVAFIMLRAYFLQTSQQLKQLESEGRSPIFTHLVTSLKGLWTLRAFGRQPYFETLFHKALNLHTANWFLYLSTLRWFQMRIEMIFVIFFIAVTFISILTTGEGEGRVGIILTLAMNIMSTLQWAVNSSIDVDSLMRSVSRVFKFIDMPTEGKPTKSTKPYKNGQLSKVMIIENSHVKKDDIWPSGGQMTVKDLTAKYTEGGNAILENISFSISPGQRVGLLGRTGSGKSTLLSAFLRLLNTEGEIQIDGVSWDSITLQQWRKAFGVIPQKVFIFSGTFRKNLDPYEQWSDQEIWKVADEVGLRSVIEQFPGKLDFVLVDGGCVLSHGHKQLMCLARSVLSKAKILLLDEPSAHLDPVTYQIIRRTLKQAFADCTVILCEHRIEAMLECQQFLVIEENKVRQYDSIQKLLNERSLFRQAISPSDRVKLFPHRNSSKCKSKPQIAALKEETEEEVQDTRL
T1 sequence (P13569 with tags, fused parts or gaps DEL508-508): as above

Structure (SMILES) | % Activity at 1 μM (AUC**) (CFTR ΔF508) [%] | % Activation (ΔF508-CFTR [1]) [%] | EC50 (ΔF508-CFTR [1]) [nM] | % Activation (ΔF508-CFTR [2]) [%] | EC50 (ΔF508-CFTR [2]) [nM] | EC50 (CFTR ΔF508) [nM]
CS(=O)(=O)NC(=O)c1cc(OCC2CCC(F)(F)C2)c2c(C3CCC3)nn(-c3ccccc3)c2n1 (stereo not shown) [Compound 238, 3-cyclobutyl-4-[(3,3-difluorocyclopentyl)methoxy]-N-(methanesulfonyl)-1-phenyl-1H-pyrazolo[3,4-b]pyridine-6-carboxamide] | 521.96 | 347.55 | 219 | 159.83 | 601 | 
CC(C)c1nn(-c2ccc(F)cc2)c2nc(C(=O)NS(C)(=O)=O)cc(N3CCC(C#N)CC3)c12 [Compound 240, 4-(4-cyanopiperidin-1-yl)-1-(4-fluorophenyl)-N-(methanesulfonyl)-3-(propan-2-yl)-1H-pyrazolo[3,4-b]pyridine-6-carboxamide] | 288.71 | 312.8 | 139 | 176.67 | 377 | 140
COC(C)C1CCN(c2cc(C(=O)NS(C)(=O)=O)nc3c2c(C2CCC2)nn3-c2ccccc2)CC1 (stereo not shown) [Compound 241, 3-cyclobutyl-N-(methanesulfonyl)-4-[4-(1-methoxyethyl)piperidin-1-yl]-1-phenyl-1H-pyrazolo[3,4-b]pyridine-6-carboxamide] | 400 | 488.15 | 82.2 | 261.93 | 366 | < 10
COC(C)(C1CCN(c2cc(C(=O)NS(C)(=O)=O)nc3c2c(C2CCC2)nn3-c2ccccc2)CC1)C(F)(F)F (stereo not shown) [Compound 242, 3-cyclobutyl-N-(methanesulfonyl)-1-phenyl-4-[4-(1,1,1-trifluoro-2-methoxypropan-2-yl)piperidin-1-yl]-1H-pyrazolo[3,4-b]pyridine-6-carboxamide] | 308.45 | 459.15 | 203 | 242.1 | 283 | 14
CS(=O)(=O)NC(=O)c1cc(OCCN2CCS(=O)(=O)CC2)c2c(C3CCC3)nn(-c3ccccc3)c2n1 [Compound 243, 3-cyclobutyl-4-[2-(1,1-dioxo-1λ^6,4-thiazinan-4-yl)ethoxy]-N-(methanesulfonyl)-1-phenyl-1H-pyrazolo[3,4-b]pyridine-6-carboxamide] | 165.81 | 204.1 | 3330 | 78.11 | 3340 | 
CS(=O)(=O)NC(=O)c1cc(N2CCC(CO)CC2)c2c(C3CCC3)nn(-c3ccccc3)c2n1 [Compound 244, 3-cyclobutyl-4-[4-(hydroxymethyl)piperidin-1-yl]-N-(methanesulfonyl)-1-phenyl-1H-pyrazolo[3,4-b]pyridine-6-carboxamide] | 238.89 | 290.6 | 413 | 182.7 | 381 | 
COCC1CCN(c2cc(C(=O)NS(=O)(=O)c3cnn(C)c3)nc3c2c(C2CCC2)nn3-c2ccccc2)CC1 [Compound 245, 3-cyclobutyl-4-[4-(methoxymethyl)piperidin-1-yl]-N-(1-methyl-1H-pyrazole-4-sulfonyl)-1-phenyl-1H-pyrazolo[3,4-b]pyridine-6-carboxamide] | 628.25 | 460 | 694 | 228 | 495 | 
COCCN(CCOC)c1ccc(-c2cc(C(=O)NS(C)(=O)=O)nc3c2c(C2CCC2)nn3-c2ccccc2)cn1 [Compound 246, 4-{6-[bis(2-methoxyethyl)amino]pyridin-3-yl}-3-cyclobutyl-N-(methanesulfonyl)-1-phenyl-1H-pyrazolo[3,4-b]pyridine-6-carboxamide] | 301.36 | 331.65 | 77.3 | 112.1 | 371 | 61
COCC1(OC)CCN(c2cc(C(=O)NS(C)(=O)=O)nc3c2c(C2CCC2)nn3-c2ccccc2)CC1 [Compound 247, 3-cyclobutyl-N-(methanesulfonyl)-4-[4-methoxy-4-(methoxymethyl)piperidin-1-yl]-1-phenyl-1H-pyrazolo[3,4-b]pyridine-6-carboxamide] | 422.93 | 281.7 | 221 | 126.8 | 460 | 81
COCC1CCN(c2cc(C(=O)NS(C)(=O)=O)nc3c2c(C(C)C)nn3-c2ccnc(N3CCOCC3)c2)CC1 [Compound 248, N-(methanesulfonyl)-4-[4-(methoxymethyl)piperidin-1-yl]-1-[2-(morpholin-4-yl)pyridin-4-yl]-3-(propan-2-yl)-1H-pyrazolo[3,4-b]pyridine-6-carboxamide] | 275.96 | 450.6 | 221 | 234.6 | 371 | 
COCCS(=O)(=O)NC(=O)c1cc(N2CCC(COC)CC2)c2c(C(C)C)nn(-c3ccnc(N4CCOCC4)c3)c2n1 [Compound 249, N-(2-methoxyethanesulfonyl)-4-[4-(methoxymethyl)piperidin-1-yl]-1-[2-(morpholin-4-yl)pyridin-4-yl]-3-(propan-2-yl)-1H-pyrazolo[3,4-b]pyridine-6-carboxamide] | 271.29 | 468.15 | 231 | 187.6 | 371 | 
COCC1CCN(c2cc(C(=O)NS(=O)(=O)c3cn(C)c(C)n3)nc3c2c(C2CCC2)nn3-c2ccccc2)CC1 [Compound 250, 3-cyclobutyl-N-(1,2-dimethyl-1H-imidazole-4-sulfonyl)-4-[4-(methoxymethyl)piperidin-1-yl]-1-phenyl-1H-pyrazolo[3,4-b]pyridine-6-carboxamide] | 331.21 | 440.4 | 372 | 232.7 | 514 | 
COCCS(=O)(=O)NC(=O)c1cc(N2CCC(COC)CC2)c2c(C(C)C)nn(C3CCCCC3)c2n1 [Compound 251, 1-cyclohexyl-N-(2-methoxyethanesulfonyl)-4-[4-(methoxymethyl)piperidin-1-yl]-3-(propan-2-yl)-1H-pyrazolo[3,4-b]pyridine-6-carboxamide] | 336.34 | 488.7 | 367 | 273.3 | 634 | 
COCCN(CCOC)c1ccc(-c2cc(C(=O)NS(C)(=O)=O)nc3c2c(C(C)C)nn3-c2ccnc(N3CCOCC3)c2)cn1 [Compound 252, 4-{6-[bis(2-methoxyethyl)amino]pyridin-3-yl}-N-(methanesulfonyl)-1-[2-(morpholin-4-yl)pyridin-4-yl]-3-(propan-2-yl)-1H-pyrazolo[3,4-b]pyridine-6-carboxamide] | 248.51 | 310.75 | 1690 | 115.2 | 396 | 
COCCS(=O)(=O)NC(=O)c1cc(N2CCC(COC)CC2)c2c(C(C)C)nn(CC3CCC3)c2n1 [Compound 263, 1-(cyclobutylmethyl)-N-(2-methoxyethanesulfonyl)-4-[4-(methoxymethyl)piperidin-1-yl]-3-(propan-2-yl)-1H-pyrazolo[3,4-b]pyridine-6-carboxamide] | 399.85 | 475.45 | 404 | 260.1 | 445 | 77
COCC1CCN(c2cc(C(=O)NS(=O)(=O)CCN3CCOCC3)nc3c2c(C2CCC2)nn3-c2ccccc2)CC1 [Compound 267, 3-cyclobutyl-4-[4-(methoxymethyl)piperidin-1-yl]-N-[2-(morpholin-4-yl)ethanesulfonyl]-1-phenyl-1H-pyrazolo[3,4-b]pyridine-6-carboxamide] |  | 433 | 57.1 | 274.8 | 172 | 130
COCCS(=O)(=O)NC(=O)c1cc(OCC2(C)COC2)c2c(C3CCC3)nn(-c3ccccc3)c2n1 [Compound 269, 3-cyclobutyl-N-(2-methoxyethanesulfonyl)-4-[(3-methyloxetan-3-yl)methoxy]-1-phenyl-1H-pyrazolo[3,4-b]pyridine-6-carboxamide] | 172.35 | 275.45 | 97.2 | 120.6 | 246 | 
CC(C)N1CCN(c2cc(C(=O)NS(C)(=O)=O)nc3c2c(C2CCC2)nn3-c2ccccc2)CC1 [Compound 270, 3-cyclobutyl-N-(methanesulfonyl)-1-phenyl-4-[4-(propan-2-yl)piperazin-1-yl]-1H-pyrazolo[3,4-b]pyridine-6-carboxamide] | 250 | 327.9 | 731 | 161.5 | 1490 | 297
